Assay results taken from article PMC7148434, “ACE-domain selectivity extends beyond direct interacting residues at the active site” (Biochemical Journal, 2020).

Key:
Assay type in all cases: biochemical
[1] = molecular target: S′-nACE (S260T, E262S, D354E, S357V, T358V and E431D) (Homo sapiens, UniProt P12821, D383E/E291S/E460D/S289T/S386V/T387V); assay: Inhibitor binding kinetics, modified Abz-FRK(Dnp)P-OH assay, S′ mutant; conditions: for decrease in binding affinity compared with nACE: S′-nACE relative to nACE; for Selectivity (Ki cACE/Ki nACE or mutant): Ki cACE / Ki S′-nACE; for Ki: S′-nACE, Morrison plot, 50 mM HEPES pH 6.8, 200 mM NaCl, 10 μM ZnCl2, mean ± SD
S′-nACE (S260T, E262S, D354E, S357V, T358V and E431D), sequence (P12821 40-624 S289T/E291S/D383E/S386V/T387V/E460D): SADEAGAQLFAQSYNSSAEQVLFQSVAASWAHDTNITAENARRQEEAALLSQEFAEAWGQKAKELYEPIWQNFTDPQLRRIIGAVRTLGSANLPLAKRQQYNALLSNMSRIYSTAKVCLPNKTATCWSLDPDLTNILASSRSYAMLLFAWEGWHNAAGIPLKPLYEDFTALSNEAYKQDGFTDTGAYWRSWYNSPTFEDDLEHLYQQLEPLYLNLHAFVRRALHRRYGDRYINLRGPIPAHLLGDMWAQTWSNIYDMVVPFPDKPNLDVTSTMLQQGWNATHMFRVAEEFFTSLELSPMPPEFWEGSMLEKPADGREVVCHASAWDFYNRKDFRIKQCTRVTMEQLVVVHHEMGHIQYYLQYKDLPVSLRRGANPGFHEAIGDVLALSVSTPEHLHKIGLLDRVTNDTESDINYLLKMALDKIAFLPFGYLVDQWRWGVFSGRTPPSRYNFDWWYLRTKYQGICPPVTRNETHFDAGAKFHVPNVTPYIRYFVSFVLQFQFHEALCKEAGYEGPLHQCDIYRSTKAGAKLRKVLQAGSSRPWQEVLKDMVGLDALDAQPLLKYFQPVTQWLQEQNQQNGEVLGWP
Procedure: (§1) Serial dilutions of an appropriate range were prepared for each inhibitor in the aforementioned assay buffer. An appropriate concentration of enzyme was similarly prepared and incubated with an equal volume of inhibitor for 15 min at 22°C after which 20 μl volumes of the reactions were aliquoted to a 96-well plate. […] Control (zero inhibitor) reactions containing the appropriate concentration of methanol or DMSO (in the case of ketoACE-13 or omapatrilat, respectively) were included to correct for any possible vehicle-induced effects on the reaction rate.

cACE = cACE (Homo sapiens, UniProt P12821); assay: Inhibitor binding kinetics, modified Abz-FRK(Dnp)P-OH assay, wild-type C-domain; conditions: for Ki: cACE, Morrison plot, 50 mM HEPES pH 6.8, 200 mM NaCl, 10 μM ZnCl2, mean ± SD
cACE, sequence (P12821 643-1222 limits assumed): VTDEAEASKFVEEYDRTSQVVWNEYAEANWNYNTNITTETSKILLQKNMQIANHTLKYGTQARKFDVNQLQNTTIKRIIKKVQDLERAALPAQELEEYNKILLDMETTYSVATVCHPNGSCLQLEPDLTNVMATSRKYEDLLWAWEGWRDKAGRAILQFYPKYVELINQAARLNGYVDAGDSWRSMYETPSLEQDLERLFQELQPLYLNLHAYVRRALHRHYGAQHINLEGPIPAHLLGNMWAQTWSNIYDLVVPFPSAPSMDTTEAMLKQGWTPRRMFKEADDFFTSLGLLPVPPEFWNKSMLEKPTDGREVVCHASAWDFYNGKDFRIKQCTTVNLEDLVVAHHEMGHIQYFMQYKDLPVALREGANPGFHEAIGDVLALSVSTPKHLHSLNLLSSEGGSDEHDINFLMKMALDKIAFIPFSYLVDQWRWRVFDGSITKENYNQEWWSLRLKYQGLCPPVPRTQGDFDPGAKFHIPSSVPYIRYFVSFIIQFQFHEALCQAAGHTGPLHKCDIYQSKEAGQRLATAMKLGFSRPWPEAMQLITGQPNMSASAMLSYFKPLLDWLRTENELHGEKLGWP
Procedure: as §1

[2] = molecular target: S2-nACE (Y369F and R381E) (Homo sapiens, UniProt P12821, R410E/Y398F); assay: Inhibitor binding kinetics, modified Abz-FRK(Dnp)P-OH assay, S2 mutant; design: The truncated (single domain) wild-type N-domain (nACE), N-domain mutant constructs; made in house; host or cells: CHO-K1; conditions: for decrease in binding affinity compared with nACE: S2-nACE relative to nACE; for Selectivity (Ki cACE/Ki nACE or mutant): Ki cACE / Ki S2-nACE; for Ki: S2-nACE, Morrison plot, 50 mM HEPES pH 6.8, 200 mM NaCl, 10 μM ZnCl2, mean ± SD
S2-nACE (Y369F and R381E), sequence (P12821 40-624 Y398F/R410E): as the sequence (P12821 40-624 S289T/E291S/D383E/S386V/T387V/E460D) above, with T250S, S252E, E344D, V347S, V348T, Y359F, R371E, D421E counted along it
Procedure: as §1

[3] = molecular target: S2_S′-nACE (S260T, E262S, D354E, S357V, T358V, Y369F, R381E and E431D) (Homo sapiens, UniProt P12821, D383E/E291S/E460D/R410E/S289T/S386V/T387V/Y398F); assay: Inhibitor binding kinetics, modified Abz-FRK(Dnp)P-OH assay, combined S2_S′ mutant; design: The truncated (single domain) wild-type N-domain (nACE), N-domain mutant constructs; made in house; host or cells: CHO-K1; conditions: for binding affinity lower than that of cACE: S2_S′-nACE relative to cACE; for decrease in binding affinity compared with nACE: S2_S′-nACE relative to nACE; for Selectivity (Ki cACE/Ki nACE or mutant): Ki cACE / Ki S2_S′-nACE; for Ki: S2_S′-nACE, Morrison plot, 50 mM HEPES pH 6.8, 200 mM NaCl, 10 μM ZnCl2, mean ± SD
S2_S′-nACE (S260T, E262S, D354E, S357V, T358V, Y369F, R381E and E431D), sequence (P12821 40-624 S289T/E291S/D383E/S386V/T387V/Y398F/R410E/E460D): as the sequence (P12821 40-624 S289T/E291S/D383E/S386V/T387V/E460D) above, with Y359F, R371E counted along it
Procedure: as §1

nACE [4] = assay: Inhibitor binding kinetics, modified Abz-FRK(Dnp)P-OH assay, wild-type N-domain; conditions: Ki cACE / Ki nACE (N-selectivity)
Procedure: as §1

nACE [5] = molecular target: nACE (Homo sapiens, UniProt P12821); assay: as above; design: The truncated (single domain) wild-type N-domain (nACE); made in house; host or cells: CHO-K1; conditions: nACE; Morrison plot; 50 mM HEPES pH 6.8, 200 mM NaCl, 10 μM ZnCl2; mean ± SD
nACE (Homo sapiens, UniProt P12821), sequence (P12821 40-624 limits assumed): as the sequence (P12821 40-624 S289T/E291S/D383E/S386V/T387V/E460D) above, with T250S, S252E, E344D, V347S, V348T, D421E counted along it
Procedure: as §1

Row | Compound | decrease in binding affinity compared with nACE [1] | greater affinity to cACE than nACE (cACE; cACE relative to nACE) | decrease in binding affinity compared with nACE [2] | binding affinity lower than that of cACE [3] | decrease in binding affinity compared with nACE [3] | Selectivity (Ki cACE/Ki nACE or mutant) (nACE [4]) | Selectivity (Ki cACE/Ki nACE or mutant) [1] | Ki [1] | Selectivity (Ki cACE/Ki nACE or mutant) (cACE) | Ki (cACE) | Ki (nACE [5]) | Selectivity (Ki cACE/Ki nACE or mutant) [2] | Ki [2] | Selectivity (Ki cACE/Ki nACE or mutant) [3] | Ki [3]
1 | C[C@H](N[C@@H](CCc1ccccc1)C(=O)O)C(=O)N1CCC[C@H]1C(=O)O [Enalaprilat, enalaprilat, reference compound] | 2.5 fold | 5 fold | 2 fold | 19 fold | 4 fold | – | – | – | – | – | – | – | – | – | –
2 | CC(C)(C)OC(=O)NC(CC(=O)O)C(=O)NC(Cc1ccccc1)C(=O)CCC(=O)N1CCCC1C(=O)O (stereo not drawn) [KetoACE13] | 3 fold | – | – | 6 fold | – | 8 | 3 | 2990 ± 1000 nM | 1 | 8250 ± 430 nM | 1000 ± 270 nM | 0.5 | 17800 nM | 0.2 | 47800 nM
3 | CC(NC(C(=O)O)C1CCCN1C(=O)C(N)CC(=O)O)C(=O)N1CCCC1C(=O)O (stereo not drawn) [SG6] | 11 fold | – | 474 fold | – | 784 fold | 825 | 70 | 1.09 ± 0.1 nM | 1 | 76.8 ± 4.3 nM | 0.093 ± 0.02 nM | 1.7 | 44 ± 2.8 nM | 1.1 | 72.9 ± 7.5 nM
